What was measured:
[1] = Pichia membrane flotation assay, control membranes; assay type: binding, Pichia pastoris; conditions: membranes from yeast not expressing ORAI1
Experimental: A membrane flotation assay was used to evaluate binding of these recombinant STIM 1 proteins to ORAI1. For these experiments ORAI1 (65-301) was expressed, an N-terminally truncated ORAI1 protein that forms functional Ca^2+ channels in mammalian cells (Li, Z., et al., J Biol Chem 282, 29448-29456 (2007)), in the yeast Pichia pastoris. Microsomal membranes were prepared from P pastoris expressing ORAI1 (65-301), layered at the bottom of a discontinuous sucrose gradient, and centrifuged. After centrifugation, the recombinant ORAI 1 was recovered near the top of the gradient in the fraction visually identified as containing membranes (FIG. 2A), as expected for an integral membrane protein.
Microsomal membranes, prepared from yeast Pichia pastoris expressing human ORAI1 (65-301) with an N-terminal FLAG tag and the substitutions E106Q and N223A, were resuspended in 10 mM HEPES pH 7.4, 150 mM NaCl, 1 mM DTT, 10% glycerol, briefly sonicated, brought to 25 mM EDTA by addition of EDTA from a concentrated stock, layered over a 0.5 M sucrose cushion, and centrifuged at 149,000×g for 1 h at 4° C. in a Beckman airfuge. […] FLAG-tagged ORAI1 was detected using anti-FLAG M2 monoclonal antibody (Sigma) and His-tagged STIM1^CT fragments were detected using anti-His-Tag monoclonal antibody (27E8 clone, Cell Signaling Technology).

[2] = target: T1, ORAI1 (R91W) (Homo sapiens, UniProt Q96D31, R91W); assay: Cameleon D3 cpV intravesicular Ca^2+ assay, vesicles with ORAI1 (R91W); assay type: biochemical; conditions: vesicles containing ORAI1 (R91W)
T1 construct: the ORAI functional fragment is ORAI1 (65-301), ORAI1 (65-87), or full length ORAI1; made in house; host or cells: S. cerevisiae NY17 (sec6-4), isolated secretory vesicles
Description: Confirmation that Ca^2+ release from the vesicles was due to gating of the ORAI 1 channel was sought. […] It was concluded that the in vitro assay reflects STIM 1-dependent gating of ORAI1 and Ca^2+ flux through the ORAI1 channel pore.
The yeast expression vector pBEVY-GU60 allows for simultaneous expression of two transgenes by means of the bidirectional GAL1-10 promoter. The FRET-based calcium sensors D3 cpV and D4 cpV53 were fused at the N-terminus with the S. cerevisiae α-mating factor secretion signal (Bitter, G. A., et al., Proc Natl Acad Sci USA 81, 5330-5334 (1984)), which directs proteins into the secretory pathway, and introduced into pBEVY-GU in the following way. Vector pPIC9 (Invitrogen) served as template for PCR amplification of the α-mating factor secretion signal (5′ primer: […] (SEQ ID NO: 2); 3′ primer: […] (SEQ ID NO: 3)), introducing an EcoRI site at the 5′ end, and a sequence complementary to that encoding the N-terminus of the calcium sensor at the 3′ end. DNA encoding the N-terminal portion of the calcium sensor D3 cpV, comprising CFP, was amplified by PCR (5′ primer: […] (SEQ ID NO: 4); 3′ primer: […] (SEQ ID NO: 5)), introducing an SphI site followed by a stop codon and a NotI site at the 3′ end of the resulting DNA fragment. […]

T1 sequence (Q96D31 2-301 R91W): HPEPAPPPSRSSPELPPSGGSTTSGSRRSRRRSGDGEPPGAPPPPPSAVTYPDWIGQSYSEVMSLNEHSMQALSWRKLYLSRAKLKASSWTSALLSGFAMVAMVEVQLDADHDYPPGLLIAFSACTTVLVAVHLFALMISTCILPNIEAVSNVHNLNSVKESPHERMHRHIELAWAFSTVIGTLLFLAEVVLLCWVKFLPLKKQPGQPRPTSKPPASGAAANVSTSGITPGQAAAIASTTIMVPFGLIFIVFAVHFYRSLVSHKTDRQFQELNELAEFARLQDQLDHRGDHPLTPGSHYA

## STIM1^CT: cytoplasmic region of STIM1, mouse residues 233-685, His-tagged recombinant protein expressed in E coli
[1]
  position in gradient with control membranes: remained at the bottom of the gradient
[2]
  Ca^2+ release from vesicles: did not elicit Ca^2+ release

Reference: patent US20120264231A1, “ASSAY FOR ORAI CALCIUM CHANNEL REGULATORS” (IMMUNE DISEASE INSTITUTE, INC., priority 2009, published 2012)
